Consider 67 molecules from article PMC9775191, “A Subset Screen of the Compounds Australia Scaffold Library Identifies 7-Acylaminodibenzoxazepinones as Potent and Selective Hits for Anti-Giardia Drug Discovery” (Biomedicines, 2022).

One assay concerns G. duodenalis BRIS/91/HEPU/1279. Put plainly: Primary Giardia screen at 10 µM (live-cell imaging, automated counting). To be noted: 24 h. It is filed as cell-based, Giardia duodenalis. In short, it runs like this: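 Percent growth versus 0.2% DMSO vehicle, background-corrected with media-only wells, is reported at 24 and 48 h from automated live-cell counts. Testing used 10 μM final in a 3% O2 atmosphere, with plate quality checked by Z' factor.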
`CCc1nc(-c2cc(S(=O)(=O)N(C)c3cccc(C)c3)c(C)s2)no1` [SN00789104]: the “Average % Inhibition 24h” value came to 14.2%. Consider `O=C(c1cc2occc2c(Nc2ccc(F)cc2)n1)N1CCN(c2ccccn2)CC1` [SN00790827], for which the “Average % Inhibition 24h” value was 14.2%.

Still in this assay, the particulars now being: 24 h, first singlicate assay.
As for `CCc1nc(-c2cc(S(=O)(=O)N(C)c3cccc(C)c3)c(C)s2)no1` [SN00789104], the “% Inhibition n=1 24h” value worked out at 28.4%. On to `O=C(c1cc2occc2c(Nc2ccc(F)cc2)n1)N1CCN(c2ccccn2)CC1` [SN00790827], for which the “% Inhibition n=1 24h” value is recorded as 21.9%.

The same assay, now with this note: 24 h, re-assessment.
`CCc1nc(-c2cc(S(=O)(=O)N(C)c3cccc(C)c3)c(C)s2)no1` [SN00789104]: the “% Inhibition n=2 24h” value came out at 0.0%. Same read-out and setting: next, `O=C(c1cc2occc2c(Nc2ccc(F)cc2)n1)N1CCN(c2ccccn2)CC1` [SN00790827]: 6.5%.

The same assay, now with this note: 48 h.
Regarding `CCc1nc(-c2cc(S(=O)(=O)N(C)c3cccc(C)c3)c(C)s2)no1` [SN00789104], the “Average % Inhibition 48h” value turned out to be 30.8%. Same read-out and setting: then `O=C(c1cc2occc2c(Nc2ccc(F)cc2)n1)N1CCN(c2ccccn2)CC1` [SN00790827], with 31.0%.

The same assay, now with this note: 48 h, first singlicate assay.
Regarding `Cc1c(C)n(-c2ccccc2)c2ncnc(N3CCC(C)CC3)c12` [SN00789013], the “% Inhibition n=1 48h” value worked out at 35.2%. Still for that read-out and setting: next, `Cc1ccc(S(=O)(=O)n2ccn(C(=O)c3ccccc3C)c2=O)cc1` [SN00789027]: 0.0%.

On to `COc1ccccc1C(=O)n1ccn(S(=O)(=O)c2ccc(C)cc2)c1=O` [SN00789029], for which the “% Inhibition n=1 48h” value came out at 6.3%. Same read-out and setting: then `Cc1ccc(Cl)cc1NC(=O)C1CC2CSCN2C12C(=O)Nc1ccccc12` (centres unmarked) [SN00789076], with 17.2%; and `CCc1nc(-c2cc(S(=O)(=O)N(C)c3cccc(C)c3)c(C)s2)no1` [SN00789104], with 48.8%. Still for that read-out and setting: next, `Cc1noc(-c2c(C)sc(C)c2S(=O)(=O)NCc2ccccc2)c1C` [SN00789144]: 30.5%. Turning to `COc1ccc(-n2ccn(CC(=O)Nc3ccc(OC)cc3OC)c2=O)cc1` [SN00789162], the “% Inhibition n=1 48h” value worked out at 0.0%. Take `Cc1ccccc1S(=O)(=O)N1CCC2(CC1)Nc1ccc(Cl)cc1-n1cccc12` [SN00789223]: the “% Inhibition n=1 48h” value was found to be 20.1%. Same read-out and setting: next, `COc1ccc2c(c1)NC1(CCN(C(=O)Cc3ccc(F)cc3)CC1)c1cccn1-2` [SN00789241]: 5.9%; `CCc1nnc(-c2cc3ccccc3n2CC(=O)N2CCCc3ccccc32)o1` [SN00789262]: 0.0%; `COC(=O)c1ccc(Cn2c(-c3nnc(C(C)C)o3)cc3ccccc32)cc1` [SN00789282]: 4.4%. On the same count and under the same terms, next, `CCn1nnc2cc(C(=O)N(C)CC(=O)NCc3cccc(C)c3)ccc21` [SN00789328]: 14.4%; `O=C1COc2ccc(Cl)cc2N1Cc1nc(Cn2cnc3ccccc3c2=O)no1` [SN00789336]: 0.0%.

Consider `CCOc1cccc(CC(=O)Nc2ccc3c(c2)C(=O)N(C)C2=NCCN23)c1OCC` [SN00789358], for which the “% Inhibition n=1 48h” value was 35.6%. Same read-out and setting: then `Cc1cc2c(cc1C)N(CC(=O)NCc1cccs1)C(=O)C1CCCC1=N2` (centres unmarked) [SN00789389], with 11.1%; and `CSc1ccc(-c2noc(-c3ccc4c(=O)n(Cc5ccccc5)c(=O)[nH]c4c3)n2)cc1` [SN00789400], with 6.5%; and `CCCCn1c(=O)[nH]c2cc(-c3nc(-c4ccc(F)cc4)no3)ccc2c1=O` [SN00789403], with 0.3%. Still for that read-out and setting: next, `COc1ccc(Cn2c(=O)c3nccnc3n(Cc3cccc(C)c3)c2=O)cc1` [SN00789526]: 0.0%; `CCOC(=O)c1csc(-n2nc(-c3cccc(OC(C)=O)c3)cc2C(F)(F)F)n1` [SN00789527]: 21.7%; `COc1ccc(NC(=O)C2CCn3c(nc4ccccc43)C2)cc1Cl` (centres unmarked) [SN00789545]: 0.0%. The same measure, in the same setting: next, `Cc1ccc(NC(=O)Cn2c(=O)n(Cc3ccc4c(c3)OCO4)c(=O)c3ncccc32)cc1` [SN00789565]: 0.0%. Turning to `COc1ccc(CCn2c(=O)c3ncccc3n(Cc3ccc(C)cc3)c2=O)cc1OC` [SN00789585], the “% Inhibition n=1 48h” value came out at 1.7%. Still for that read-out and setting: then `CC(C)c1ccc(S(=O)(=O)N2CCN(c3cc(=O)n4nc(-c5ccccc5)sc4n3)CC2)cc1` [SN00789595], with 0.0%; and `COc1ccc(S(=O)(=O)N2CCN(c3cc(=O)n4nc(-c5ccccc5C)sc4n3)CC2)cc1` [SN00789606], with 10.6%; and `CCCNS(=O)(=O)c1cc(C(=O)N2CCCC2)cs1` [SN00789651], with 0.0%.

With `Cc1ccc(S(=O)(=O)NC(C)c2nc(-c3cccc(C(=O)N4CCCC4)c3)no2)cc1` (centres unmarked) [SN00789753], the “% Inhibition n=1 48h” value stood at 5.7%. Still for that read-out and setting: then `Cc1nc(-c2cccc(N3CC(C(=O)NCc4ccccc4)CC3=O)c2)no1` (centres unmarked) [SN00789781], with 0.0%; and `O=C(C1CC(=O)N(c2cccc(-c3noc(C4CCC4)n3)c2)C1)N1CCN(c2ccccc2F)CC1` (centres unmarked) [SN00789791], with 5.7%.

For the molecule `COCCNC(=O)C1(C)Cn2c(cc3ccsc32)C(=O)N1c1ccc(OC)c(OC)c1` (centres unmarked) [SN00789817], the “% Inhibition n=1 48h” value is 0.0%. On to `Cn1nc(C(=O)NCc2ccc3c(c2)OCO3)c2c1CCN(C(=O)C1CCCC1)C2` [SN00789838], for which the “% Inhibition n=1 48h” value is on record as 7.0%. `Cc1ccc(NS(=O)(=O)c2ccc(-c3nnc(C)o3)s2)cc1` [SN00789919]: the “% Inhibition n=1 48h” value worked out at 5.1%. Still for that read-out and setting: next, `COc1ccc(NC(=O)c2cn(-c3ccc(-c4noc(C5CCCC5)n4)cc3)nc2C)cc1OC` [SN00789967]: 25.5%.

On to `Cc1c(N2CCC(C(=O)NC3CCCCCC3)CC2)c(=O)n(CC(C)C)c(=O)n1-c1ccccc1` [SN00790002], for which the “% Inhibition n=1 48h” value is reported as 9.5%. Take `CCc1ccc(-c2cc(C(=O)N3CCN(c4c(C)n(-c5ccccc5)c(=O)n(C)c4=O)CC3)[nH]n2)cc1` [SN00790031]: the “% Inhibition n=1 48h” value worked out at 0.0%. The same measure, in the same setting: then `O=C(NCCC1=CCCCC1)C1CCN(c2nc3cccnc3n(Cc3ccccc3)c2=O)CC1` [SN00790039], with 11.4%; and `Cc1noc(C)c1CCNC(=O)C1CCN(c2nc3cccnc3n(C)c2=O)CC1` [SN00790058], with 15.0%. `CCn1c(=O)c(N2CCCC(C(=O)NCCc3c[nH]c4ccccc34)C2)nc2ccccc21` (centres unmarked) [SN00790077]: the “% Inhibition n=1 48h” value came to 9.8%. With `COc1cc(NC(=O)C2CCCN(c3nc4ccccc4[nH]c3=O)C2)cc(OC)c1` (centres unmarked) [SN00790089], the “% Inhibition n=1 48h” value was 0.0%. Consider `O=C(Cc1cccs1)Nc1ccc(N2CCN(c3ccccc3F)CC2)cc1C(=O)O` [SN00790111], for which the “% Inhibition n=1 48h” value is 0.0%.

Consider `Cc1ccc(-n2nc(N3CCC(C(=O)NCC4CCCO4)CC3)ccc2=O)cc1Cl` (centres unmarked) [SN00790174], for which the “% Inhibition n=1 48h” value stood at 0.0%. As to `O=C(Nc1ccc2nc(N3CCCN(c4ncccn4)CC3)cc(C(=O)O)c2c1)c1ccccc1F` [SN00790270], the “% Inhibition n=1 48h” value is 0.0%. `COc1ccccc1CN1CCN(c2cc(C(=O)O)c3cc(NC(C)=O)ccc3n2)CC1` [SN00790290]: the “% Inhibition n=1 48h” value was 39.8%. The same measure, in the same setting: then `Cc1ccc(CN2CCN(C(=O)C3CCC3)c3cccnc32)cc1` [SN00790417], with 4.2%; and `COc1ccc(OCC(=O)N2CCN(Cc3ccc(C)cc3)c3ncccc32)cc1` [SN00790421], with 6.7%; and `COc1ccc(S(=O)(=O)N2CCN(Cc3ccc(C)cc3)c3ncccc32)cc1` [SN00790428], with 10.3%.

For the molecule `O=S(=O)(c1ccc(F)cc1)N1CCN=C1N1CCCCC1` [SN00790442], the “% Inhibition n=1 48h” value came to 15.7%.

For `O=C(Nc1cccc(F)c1)c1nnc(C2CCCN2C(=O)Nc2cccc(C(F)(F)F)c2)s1` (centres unmarked) [SN00790473], the “% Inhibition n=1 48h” value was 8.5%. The same measure, in the same setting: next, `Cc1ccc(NC(=O)c2nnc(C3CCCN3C(=O)NC3CCCC3)s2)cc1` (centres unmarked) [SN00790483]: 4.4%; `CCOc1ccc(-n2c(=O)c3sc4ncccc4c3n(CC(=O)NC3CCCCC3)c2=O)cc1` [SN00790499]: 13.5%; `CCOc1ccc(-n2c(=O)c3sc4ncccc4c3n(CC(=O)N3CCCCC3)c2=O)cc1` [SN00790501]: 5.1%.

For the molecule `CSc1ccc(CNC(=O)C2CCN(S(=O)(=O)c3ccc(-c4ccn[nH]4)o3)CC2)cc1` [SN00790551], the “% Inhibition n=1 48h” value is reported as 11.7%.

With `O=c1c2cc(-c3cccs3)nn2ccn1Cc1nc(-c2cccc(F)c2)no1` [SN00790579], the “% Inhibition n=1 48h” value was 8.1%. Same read-out and setting: next, `Cc1ccc(Cn2nnc3c(=O)n(Cc4nc(-c5ccccc5)no4)cnc32)cc1` [SN00790594]: 2.1%. For the molecule `COc1ccccc1-c1noc(Cn2cnc3c(nnn3Cc3ccccc3)c2=O)n1` [SN00790613], the “% Inhibition n=1 48h” value is 6.5%. Same read-out and setting: then `Cc1ccccc1CS(=O)(=O)Cc1ccc(-c2nc(-c3ccc(Br)cc3)no2)o1` [SN00790667], with 0.0%; and `O=C(CC1COc2ccccc2N1Cc1ccccc1)N1CCc2ccccc2C1` (centres unmarked) [SN00790679], with 0.0%. On the same count and under the same terms, next, `CN1c2ccccc2OCC1CC(=O)Nc1ccc(F)cc1` (centres unmarked) [SN00790682]: 7.6%; `CCCc1nnc(C(=O)Nc2cccc(C(=O)NCc3c[nH]nc3C)c2)s1` [SN00790723]: 0.0%. For `CCOc1ccc(CNC(=O)c2cccc(NC(=O)c3nnc(C4CC4)s3)c2)cc1` [SN00790732], the “% Inhibition n=1 48h” value came out at 0.0%. The same measure, in the same setting: then `Cc1nn(C(C)C)c(C)c1S(=O)(=O)N1CCN(C(=O)c2cccs2)CC1` [SN00790783], with 3.8%; and `Cc1cccc(N(C)S(=O)(=O)c2cc(-c3ccno3)sc2C)c1` [SN00790813], with 6.1%; and `CCN1CCN(CCCNC(=O)c2cc3occc3c(Nc3ccc(OC)cc3)n2)CC1` [SN00790822], with 14.5%. Same read-out and setting: then `O=C(c1cc2occc2c(Nc2ccc(F)cc2)n1)N1CCN(c2ccccn2)CC1` [SN00790827], with 53.8%; and `Cc1ccc(CNC(=O)C2CCN(c3ncccc3-n3cccc3)CC2)cc1` [SN00790865], with 0.0%; and `CCC(C)NC(=O)N1CCc2c(sc3nc(-c4ccc(C)cc4)nn23)C1` (centres unmarked) [SN00790900], with 10.9%. On to `CCNC(=O)N1CCCC(c2cccc(C(=O)NCCC3=CCCCC3)c2)C1` (centres unmarked) [SN00790923], for which the “% Inhibition n=1 48h” value is reported as 6.9%. The same measure, in the same setting: then `CCOC(=O)c1cccc(NC(=O)c2cnc(C)nc2C)c1` [SN00790942], with 0.0%.

The assay is the same for the next values; noted with them: 48 h, re-assessment.
On to `CCc1nc(-c2cc(S(=O)(=O)N(C)c3cccc(C)c3)c(C)s2)no1` [SN00789104], for which the “% Inhibition n=2 48h” value came out at 12.8%.

For `O=C(c1cc2occc2c(Nc2ccc(F)cc2)n1)N1CCN(c2ccccn2)CC1` [SN00790827], the “% Inhibition n=2 48h” value stood at 8.1%.
